Data from ChEMBL document CHEMBL5661979, “Pharmacological inhibition of BMK1 suppresses tumor growth through promyelocytic leukemia protein” (Cancer Cell, 2010).
Calls of active or inactive are those of the source. No cut-off for these calls is given here.

Molecular target: Mitogen-activated protein kinase; ERK1/ERK2 (Homo sapiens) (UniProt P27361+P28482)
Test: Inhibition of ERK1/2 in human HeLa cells assessed as reduction in EGF-induced ERK1/2 phosphorylation level at T202/Y204 residue at 1 uM pre incubated for 1 hr followed by EGF stimulation and measured after 17 mins by Western blot analysis
Format: cell-based
Settings: time 77.0 min

Sequence of Mitogen-activated protein kinase; ERK1/ERK2 (Homo sapiens) (P27361 whole entry, looked up): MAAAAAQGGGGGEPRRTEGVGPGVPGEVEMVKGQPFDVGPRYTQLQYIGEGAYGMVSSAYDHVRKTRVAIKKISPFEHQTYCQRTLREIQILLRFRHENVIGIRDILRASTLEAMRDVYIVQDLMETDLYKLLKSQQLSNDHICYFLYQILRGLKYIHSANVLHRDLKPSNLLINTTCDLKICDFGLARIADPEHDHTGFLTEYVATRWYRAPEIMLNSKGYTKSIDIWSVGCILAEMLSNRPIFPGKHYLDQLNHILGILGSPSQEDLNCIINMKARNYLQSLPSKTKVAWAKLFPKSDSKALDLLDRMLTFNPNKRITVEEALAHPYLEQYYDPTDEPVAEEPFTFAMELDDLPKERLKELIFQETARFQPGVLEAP
Sequence of Mitogen-activated protein kinase; ERK1/ERK2 (Homo sapiens) (P28482 whole entry, looked up): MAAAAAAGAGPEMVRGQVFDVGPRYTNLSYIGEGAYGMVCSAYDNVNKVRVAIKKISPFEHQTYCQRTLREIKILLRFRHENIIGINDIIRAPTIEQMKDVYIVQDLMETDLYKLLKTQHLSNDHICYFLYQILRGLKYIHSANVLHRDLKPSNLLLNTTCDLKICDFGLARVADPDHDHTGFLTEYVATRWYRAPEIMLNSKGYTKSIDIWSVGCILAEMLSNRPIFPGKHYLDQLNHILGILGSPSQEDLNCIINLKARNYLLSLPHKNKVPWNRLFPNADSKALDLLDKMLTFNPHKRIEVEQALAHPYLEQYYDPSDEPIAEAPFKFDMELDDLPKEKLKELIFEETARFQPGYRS

O=C(NOCC1CC1)c1ccc(F)c(F)c1Nc1ccc(I)cc1Cl
inhibition: Active
